Data reported in paper PMC7377239, “Cardiovascular Effects of Polychlorinated Biphenyls and Their Major Metabolites” (Environmental Health Perspectives, 2020).
Where two headings read alike, the source gives them in different places.

What was measured:
[1] = tested on: iCell endothelial cells (human iPSC-derived ECs); experiment: High-content imaging cytotoxicity in iCell endothelial cells, 24 h; assay type: cell-based; conditions: Homo sapiens, Endothelial cell; for viability at 0.1 µM / activity at 0.1 µM: 0.10 µM
Method in brief: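 Human iPSC-derived endothelial cells (passages 1–5) were grown to a fibronectin-coated monolayer, then exposed 24 h at 37 °C with 0.5% DMSO vehicle. Staining was Hoechst 33342, MitoTracker Orange and calcein AM, read by high-content imaging. Point of departure came from 4-parameter logistic fits, with a 1-SD vehicle cutoff and 100 µM as the top concentration.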

HUVECs = experiment: Tube formation (tubulogenesis) assay in HUVECs, 18 h; assay type: cell-based, human; conditions: Homo sapiens, HUVEC, 18 h; for activity at 0.01 µM: concentration 0.01 µM; for activity at 0.1 µM: concentration 0.10 µM; for activity at 1 µM: concentration 1.00 µM; for activity at 10 µM: concentration 10.00 µM; for activity at 100 µM: concentration 100.00 µM
Method in brief: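 HUVECs (passage 1–5) seeded on reduced-growth-factor basement membrane and exposed to compounds overnight at 37°C, 5% CO2, in 2× maintenance medium with 12.5 ng/mL VEGF; 0.5% DMSO vehicle. Calcein AM-stained tube networks imaged and analysed; vehicle-normalized readouts fit to four-parameter logistic, POD set at one SD of vehicle means.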

[2] = iPSC-EC, 0.00 µM = 100.00, read-out: endo.cyto.24hr
[3] = iPSC-EC, 0.00 µM = 100.00, read-out: endo.mito.24hr
[4] = iPSC-EC, 0.00 µM = 100.00, read-out: endo.mitoint.24hr
[5] = iPSC-EC, 0.00 µM = 100.00, read-out: endo.nma.24hr
[6] = iPSC-EC, 0.00 µM = 100.00, read-out: endo.tc.24hrs
[7] = HUVECs tube formation, 0.00 µM = 100.00, read-out: huvec.mtl.18hr
[8] = HUVECs tube formation, 0.00 µM = 100.00, read-out: huvec.tlps.18hr
[9] = HUVECs tube formation, 0.00 µM = 100.00, read-out: huvec.tta.18hr
[10] = HUVECs tube formation, 0.00 µM = 100.00, read-out: huvec.ttl.18hr

COc1cc(Cl)c(-c2cc(Cl)ccc2Cl)cc1Cl [4-OMe PCB52]
viability at 0.01 µM [1, 2]: 104%
activity at 0.01 µM [1, 3]: 104%
activity at 0.01 µM [1, 4]: 88.9%
activity at 0.01 µM [1, 5]: 102%
viability at 0.01 µM [1, 6]: 104%
viability at 0.1 µM [1, 2]: 101%
activity at 0.1 µM [1, 3]: 101%
activity at 0.1 µM [1, 4]: 88%
activity at 0.1 µM [1, 5]: 102%
viability at 0.1 µM [1, 6]: 101%
viability at 1 µM [1, 2]: 104%
activity at 1 µM [1, 3]: 103%
activity at 1 µM [1, 4]: 84.8%
activity at 1 µM [1, 5]: 100%
viability at 1 µM [1, 6]: 104%
viability at 10 µM [1, 2]: 106%
activity at 10 µM [1, 3]: 106%
activity at 10 µM [1, 4]: 92.2%
activity at 10 µM [1, 5]: 99.7%
viability at 10 µM [1, 6]: 106%
viability at 100 µM [1, 2]: 53.2%
activity at 100 µM [1, 3]: 48.4%
activity at 100 µM [1, 4]: 74.5%
activity at 100 µM [1, 5]: 117%
viability at 100 µM [1, 6]: 56.6%
minimal effective concentration ([1]; iPSC-EC, 100.00 = highest concentration tested, read-out: endo.cyto.24hr POD): 43.5 µM
minimal effective concentration ([1]; iPSC-EC, 100.00 = highest concentration tested, read-out: endo.mito.24hr POD): 43.5 µM
minimal effective concentration ([1]; iPSC-EC, 100.00 = highest concentration tested, read-out: endo.mitoint.24hr POD): 100 µM
minimal effective concentration ([1]; iPSC-EC, 100.00 = highest concentration tested, read-out: endo.nma.24hr POD): 56.1 µM
minimal effective concentration ([1]; iPSC-EC, 100.00 = highest concentration tested, read-out: endo.tc.24hrs POD): 40.3 µM
minimal effective concentration (HUVECs; HUVECs tube formation, MAX 100.00, read-out: huvec.mtl.18hr POD): 17.1 µM
minimal effective concentration (HUVECs; HUVECs tube formation, MAX 100.00, read-out: huvec.tlps.18hr POD): 14.2 µM
minimal effective concentration (HUVECs; HUVECs tube formation, MAX 100.00, read-out: huvec.tta.18hr POD): 100 µM
minimal effective concentration (HUVECs; HUVECs tube formation, MAX 100.00, read-out: huvec.ttl.18hr POD): 100 µM
activity at 0.01 µM (HUVECs; [7]): 105%
activity at 0.01 µM (HUVECs; [8]): 93.8%
activity at 0.01 µM (HUVECs; [9]): 98.5%
activity at 0.01 µM (HUVECs; [10]): 87.4%
activity at 0.1 µM (HUVECs; [7]): 95.6%
activity at 0.1 µM (HUVECs; [8]): 86.8%
activity at 0.1 µM (HUVECs; [9]): 80.4%
activity at 0.1 µM (HUVECs; [10]): 70.5%
activity at 1 µM (HUVECs; [7]): 109%
activity at 1 µM (HUVECs; [8]): 140%
activity at 1 µM (HUVECs; [9]): 102%
activity at 1 µM (HUVECs; [10]): 93.9%
activity at 10 µM (HUVECs; [7]): 94.7%
activity at 10 µM (HUVECs; [8]): 81.4%
activity at 10 µM (HUVECs; [9]): 92.9%
activity at 10 µM (HUVECs; [10]): 84.8%
activity at 100 µM (HUVECs; [7]): 59.2%
activity at 100 µM (HUVECs; [8]): 42.6%
activity at 100 µM (HUVECs; [9]): 75.1%
activity at 100 µM (HUVECs; [10]): 67.4%

Oc1cccc(-c2ccc(Cl)cc2)c1 [3'-OH-PCB 3]
minimal effective concentration ([1]; endothelial cells (endo), cyto, 24 hr, read-out: POD endo.cyto.24hr): 45.8 µM
minimal effective concentration ([1]; endothelial cells (endo), mito, 24 hr, read-out: POD endo.mito.24hr): 45.8 µM
minimal effective concentration ([1]; endothelial cells (endo), mitoint, 24 hr, read-out: POD endo.mitoint.24hr): 100 µM
minimal effective concentration ([1]; endothelial cells (endo), nma, 24 hr, read-out: POD endo.nma.24hr): 9.75 µM
minimal effective concentration ([1]; endothelial cells (endo), tc, 24 hr, read-out: POD endo.tc.24hr): 53.2 µM
minimal effective concentration (HUVECs; tube formation mtl, read-out: POD huvec.mtl.18hr): 1.14 µM
minimal effective concentration (HUVECs; tube formation tlps, read-out: POD huvec.tlps.18hr): 1.01 µM
minimal effective concentration (HUVECs; tube formation tta, read-out: POD huvec.tta.18hr): 3.65 µM
minimal effective concentration (HUVECs; tube formation ttl, read-out: POD huvec.ttl.18hr): 3.26 µM
